Measurements: BindingDB's records for doi:10.1016/j.bmc.2016.03.038 (2016)

How the values were obtained:
[1] = Inhibition of mouse GAT3 expressed in HEK293 cells assessed as [3H]GABA uptake preincubated for 25 mins followed by [3H]GABA/unlabeled GABA addition measured after 4 mins by liquid scintillation counting analysis
[2] = Inhibition of mouse GAT2 expressed in HEK293 cells assessed as [3H]GABA uptake preincubated for 25 mins followed by [3H]GABA/unlabeled GABA addition measured after 10 mins by liquid scintillation counting analysis

IC50 [1] [µM] | IC50 [2] [µM] | Structure (SMILES)
62.5 | – | O=C(O)[C@H]1CNCC[C@H]1CC/C=C/c1ccccc1Cc1ccccc1
44.5 | – | O=C(O)[C@H]1CNCC[C@@H]1CCCC/C=C/c1ccccc1-c1ccccc1
37.6 | – | O=C(O)[C@H]1CNCC[C@H]1CCCC#Cc1ccccc1Cc1ccccc1
– | 52.2 | O=C(O)[C@H]1CNCC[C@H]1CCCC/C=C/c1ccccc1-c1ccccc1
